The text below walks through data of ChEMBL document CHEMBL1201862, “PubChem BioAssay data set” (2004).

Molecules are shown by their SMILES. Where a name gives a salt, the structure may show the parent alone.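 48-hour exposure; five concentrations; linearly interpolated endpoints. At the GI50, growth is halved.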 The source made the active and inactive calls. No stated cut-off is given here; in the data, active = GI50 up to about 1.1 µM and inactive = higher. A value given as a limit tells only on which side of the number the result lay.

Among the test systems are DMS-114; DMS-273; LXFL 529; M19-MEL; SNB-78; XF498; KM-20L2; RXF 631; HOP-18.
Holding throughout (assay): NCI-60 cell line screen, 48 h

As for `CC1CC2(CCC1OCc1ccccc1)OCCO2` (centres undefined), the GI50 with DMS-114, in the assay with DMS-273, in the assay on LXFL 529, with M19-MEL, in the assay with SNB-78 and in the assay on XF498 was > 100 µM (inactive) in each case.

On to `C[n+]1cc(C(O)c2ccc3c(c2)OCO3)c2ccccc2c1` (centres undefined), for which the GI50 in the assay on DMS-114 is 21.9 µM (inactive); in the assay with DMS-273, 31.2 µM (inactive); with KM-20L2 it was 45.5 µM (inactive); in the assay with M19-MEL it was 40.6 µM (inactive); with RXF 631 it was 40.8 µM (inactive); in the assay on SNB-78 it was 28.6 µM (inactive).

Regarding `COc1cc2c(cc1OC)C(C(CO)CO)N(CC(O)CCl)CC2` (centres undefined), the GI50 in the assay on DMS-273, in the assay on KM-20L2, with LXFL 529, with M19-MEL, in the assay with RXF 631 and with SNB-78 was > 100 µM (inactive) in each case. In addition, the GI50 in the assay with XF498 is > 100 µM (inactive).

In the case of `Cc1nc2c(n1CCO)C(=O)c1ccccc1C2=O`, the GI50 with DMS-273 was 20 µM (inactive); in the assay on KM-20L2 it was 33.3 µM (inactive); with LXFL 529, 36.6 µM (inactive); in the assay on M19-MEL, 2.57 µM (inactive); with SNB-78 it was 46.5 µM (inactive); with XF498, 33 µM (inactive).

For the molecule `Nc1ncnc2c1ncn2C1CC(O)C(CO)O1` (centres undefined), the GI50 in the assay with DMS-114, with DMS-273, in the assay on KM-20L2, in the assay on LXFL 529, in the assay on M19-MEL and in the assay on SNB-78 was > 100 µM (inactive) in each case.

Consider `COc1cc2c(cc1O)CCN[C@@]21CS[C@H]2c3c(OC(C)=O)c(C)c4c(c3C(COC1=O)N1C2C2c3c(cc(C)c(OC)c3O)CC([C@@H]1O)N2C)OCO4` (some centres undefined), for which the GI50 in the assay with DMS-114, with DMS-273, with KM-20L2, in the assay with LXFL 529, in the assay on M19-MEL and in the assay on RXF 631 was < 1e-06 µM (active) each time. Besides, the GI50 with XF498 was < 1e-06 µM (active).

Regarding `O=C(CCc1nnc2s/c(=C\c3ccc(Cl)c(Cl)c3)c(=O)n12)Nc1ccc(Cl)c(Cl)c1`, the GI50 is 91.2 µM (inactive) with DMS-114; 75.7 µM (inactive) in the assay with HOP-18; > 100 µM (inactive) in the assay with KM-20L2; 88.1 µM (inactive) in the assay with LXFL 529; 64.7 µM (inactive) with M19-MEL; 38.7 µM (inactive) with XF498.

Turning to `CSc1nc(Cl)c(Br)c(Sc2nc(N)nc3nc[nH]c23)n1`, the GI50 in the assay with DMS-114 was 4.74 µM (inactive); in the assay on DMS-273 it was 3.14 µM (inactive); in the assay with KM-20L2, 5.9 µM (inactive); with LXFL 529 it was 5.79 µM (inactive); in the assay on M19-MEL, 7.45 µM (inactive); in the assay with XF498 it was 15.8 µM (inactive).

In the case of `C=CCN1COc2c(cc3c4c(cccc24)C(=O)O3)C1`, the GI50 in the assay with DMS-114 was 17.9 µM (inactive); with DMS-273, 38.6 µM (inactive); in the assay on HOP-18 it was > 100 µM (inactive); in the assay with KM-20L2 it was 24.3 µM (inactive); with LXFL 529, 18.2 µM (inactive); with M19-MEL, 18.7 µM (inactive). In addition, the GI50 in the assay with XF498 is 20.2 µM (inactive).

For `O=C(/C=C/c1ccccc1Cl)c1ccc(Cl)c(Cl)c1`, the GI50 in the assay with DMS-273 was 19.9 µM (inactive); in the assay on HOP-18 it was 14.8 µM (inactive); with KM-20L2 it was 17.3 µM (inactive); in the assay on LXFL 529 it was 16.1 µM (inactive); in the assay on M19-MEL, 16.3 µM (inactive); with SNB-78, 16.2 µM (inactive).

Regarding `C[Si](C)(C)c1ccc(-c2sc(-c3ccc([Si](C)(C)C)s3)c3c2C[Si]2(C3)Cc3c(-c4ccc([Si](C)(C)C)s4)sc(-c4ccc([Si](C)(C)C)s4)c3C2)s1`, the GI50 in the assay with DMS-273, with KM-20L2, with LXFL 529, in the assay on M19-MEL, in the assay with RXF 631 and with SNB-78 was > 100 µM (inactive) throughout. Besides, the GI50 in the assay on XF498 is > 100 µM (inactive).

With `COc1ccc(C(C#N)NNC(=O)c2ccccc2O)cc1OC` (centres undefined), the GI50 in the assay with DMS-114 was 0.573 µM (active); with DMS-273 it was 0.364 µM (active); in the assay with HOP-18 it was 10 µM (inactive); with KM-20L2 it was 22 µM (inactive); in the assay with LXFL 529 it was 0.526 µM (active); in the assay on M19-MEL, 6.92 µM (inactive). In the assay on SNB-78, the GI50 was 0.685 µM (active).

Regarding `CCOC(=O)N1CCN(P(=O)(Nc2ccc3[nH]c(NC(=O)OC)nc3c2)Oc2ccccc2)CC1` (centres undefined), the GI50 was > 100 µM (inactive) in the assay on DMS-114; > 100 µM (inactive) in the assay with DMS-273; 87.9 µM (inactive) in the assay on HOP-18; > 100 µM (inactive) in the assay on KM-20L2; > 100 µM (inactive) in the assay on LXFL 529; > 100 µM (inactive) with M19-MEL. In addition, the GI50 in the assay on SNB-78 is > 100 µM (inactive).

Take `COc1ccc(/C=C2\CCC(Cc3ccccc3)(CN(C)C)C2=O)cc1` (centres undefined): the GI50 was 18.2 µM (inactive) in the assay with DMS-114; 15.2 µM (inactive) in the assay on DMS-273; > 100 µM (inactive) with HOP-18; 23.4 µM (inactive) in the assay with KM-20L2; 36.1 µM (inactive) in the assay on LXFL 529; 28.4 µM (inactive) in the assay with M19-MEL. In addition, the GI50 with SNB-78 was 35.5 µM (inactive).

As for `CCCCCCCCCCCCCCNCC(OCC)OCC`, the GI50 in the assay on DMS-114 was 12.1 µM (inactive); in the assay with HOP-18 it was 16.6 µM (inactive); in the assay with KM-20L2 it was 10.9 µM (inactive); in the assay with LXFL 529, 15.1 µM (inactive); in the assay on M19-MEL, 16.2 µM (inactive); with SNB-78, 16.8 µM (inactive). In the assay with XF498, the GI50 was 13.6 µM (inactive).

As for `CCOC(=O)C1=C(C)CC2C(=O)OC(=O)C2C1(C)C` (centres undefined), the GI50 with DMS-114, in the assay on HOP-18, with LXFL 529 and in the assay with M19-MEL was > 100 µM (inactive) throughout.

In the case of `N#C/C(=C1\N=NC(N)=C(c2ccc(Cl)cc2)C1=O)c1ccc(Cl)cc1`, the GI50 in the assay on DMS-114, with DMS-273, in the assay with HOP-18, in the assay with KM-20L2, in the assay on LXFL 529 and in the assay on M19-MEL was > 100 µM (inactive) each time. Also, the GI50 in the assay with SNB-78 and in the assay on XF498 was > 100 µM (inactive) throughout.

In the case of `COC(=O)C1C(=O)NC2(C)CC1c1ccccc1O2` (centres undefined), the GI50 in the assay with DMS-114, in the assay with DMS-273, with LXFL 529, in the assay with M19-MEL, in the assay on SNB-78 and in the assay with XF498 was > 100 µM (inactive) in each case.

In the case of `CC1CC2C(=O)NC(=O)C2c2[nH]c3ccccc3c21` (centres undefined), the GI50 with DMS-114 is 96.2 µM (inactive); with DMS-273, > 100 µM (inactive); in the assay with LXFL 529 it was > 100 µM (inactive); in the assay on M19-MEL, > 100 µM (inactive); with SNB-78, > 100 µM (inactive); in the assay on XF498, > 100 µM (inactive).

For `CC(NC(C)(C)C)C(=O)c1cccc(Cl)c1` (centres undefined) [BUPROPION HYDROCHLORIDE], the GI50 in the assay with DMS-114, in the assay on DMS-273, in the assay with KM-20L2, in the assay on LXFL 529, with M19-MEL and in the assay with RXF 631 was > 100 µM (inactive) in each case. Moreover, the GI50 with XF498 was > 100 µM (inactive).
